Structures are written as SMILES. Active and inactive are the calls of the source. The rule behind the calls is not given here.

In this series the test system is CCRIS mutagenicity, Ames/micronucleus/aberration tests. As to the kind of experiment: CCRIS mutagenicity studies.
Setting [1] is: Test System: AMES SALMONELLA TYPHIMURIUM, Strain/Indicator: TA98, Metabolic Activation: NONE, Method: STANDARD PLATE.
The mark [2] stands for this setting: Test System: AMES SALMONELLA TYPHIMURIUM, Strain/Indicator: TA98, Metabolic Activation: RAT, LIVER, S-9, AROCLOR 1254, Method: STANDARD PLATE.
Where [3] appears, read: Test System: AMES SALMONELLA TYPHIMURIUM, Strain/Indicator: TA100, Metabolic Activation: NONE, Method: STANDARD PLATE.
The mark [4] stands for this setting: Test System: AMES SALMONELLA TYPHIMURIUM, Strain/Indicator: TA100, Metabolic Activation: RAT, LIVER, S-9, AROCLOR 1254, Method: STANDARD PLATE.

Regarding `CCBr`, the mutagenic call (End Point: IN VITRO CHROMOSOMAL ABERRATIONS, Test System: CHO CELLS, Metabolic Activation: NONE) was “inactive; negative”; the mutagenic call (End Point: IN VITRO CHROMOSOMAL ABERRATIONS, Test System: CHO CELLS, Metabolic Activation: RAT, LIVER, S-9, AROCLOR 1254) is “inactive; negative”; the mutagenic call (End Point: In vitro Micronucleus, Test System: Chinese Hamster Ovary (CHO-WBL) cells, Metabolic Activation: None) is “inactive; negative”; the mutagenic call (Test System: AMES SALMONELLA TYPHIMURIUM, Strain/Indicator: TA97, Metabolic Activation: NONE, Method: STANDARD PLATE) was “active; positive”; the mutagenic call (Test System: AMES SALMONELLA TYPHIMURIUM, Strain/Indicator: TA97, Metabolic Activation: RAT, LIVER, S-9, AROCLOR 1254, Method: STANDARD PLATE) is “active; positive”; the mutagenic call (Test System: AMES SALMONELLA TYPHIMURIUM, Strain/Indicator: TA98, Metabolic Activation: HAMSTER, LIVER, S-9, AROCLOR 1254, Method: DESICCATOR) is “inactive; negative”. In addition, the mutagenic call (Test System: AMES SALMONELLA TYPHIMURIUM, Strain/Indicator: TA98, Metabolic Activation: NONE, Method: DESICCATOR) was “inactive; negative”; the mutagenic call under setting [1] was “inactive; negative”; the mutagenic call (Test System: AMES SALMONELLA TYPHIMURIUM, Strain/Indicator: TA98, Metabolic Activation: RAT, LIVER, S-9, AROCLOR 1254, Method: DESICCATOR) is “inactive; negative”; the mutagenic call under setting [2] is “active; positive”; the mutagenic call (Test System: AMES SALMONELLA TYPHIMURIUM, Strain/Indicator: TA100, Metabolic Activation: HAMSTER, LIVER, S-9, AROCLOR 1254, Method: DESICCATOR) is “active; positive”; the mutagenic call (Test System: AMES SALMONELLA TYPHIMURIUM, Strain/Indicator: TA100, Metabolic Activation: NONE, Method: DESICCATOR) was “active; positive”. Further, the mutagenic call is, setting by setting: under setting [3], “inactive; negative”; (Test System: AMES SALMONELLA TYPHIMURIUM, Strain/Indicator: TA100, Metabolic Activation: RAT, LIVER, S-9, AROCLOR 1254, Method: DESICCATOR) “active; positive”; under setting [4], “active; positive”; (Test System: AMES SALMONELLA TYPHIMURIUM, Strain/Indicator: TA104, Metabolic Activation: NONE, Method: STANDARD PLATE) “inactive; negative”; (Test System: AMES SALMONELLA TYPHIMURIUM, Strain/Indicator: TA104, Metabolic Activation: RAT, LIVER, S-9, AROCLOR 1254, Method: STANDARD PLATE) “active; positive”.

For the molecule `CC1(O)CC2CCC1(C)C2(C)C` (stereo not given), the mutagenic call reads like this: under setting [1], “inactive; negative”; under setting [2], “inactive; negative”; under setting [3], “inactive; negative”; under setting [4], “inactive; negative”.

For `Oc1cc(O)cc(/C=C/c2ccc(O)c(O)c2)c1`, the mutagenic call is “inactive; negative” (Test System: Ames Salmonella typhimurium, Strain/Indicator: TA102, Metabolic Activation: None, Method: Preincubation) and “inactive; negative” (Test System: Ames Salmonella typhimurium, Strain/Indicator: TA102, Metabolic Activation: Rat, Liver, S-9, Aroclor 1254 in 0.154 M KCl, Method: Preincubation).

Consider `[Cl][Hg][Cl]`, for which the mutagenic call reads like this: (End Point: IN VITRO MICRONUCLEUS, Test System: CHINESE HAMSTER V79 CELLS, Metabolic Activation: NONE) “active; positive”; (End Point: IN VITRO MICRONUCLEUS, Test System: CHL/IU CELLS, Metabolic Activation: NONE) “inactive; negative”; (End Point: IN VITRO MICRONUCLEUS, Test System: HUMAN PERIPHERAL LYMPHOCYTES, Metabolic Activation: NONE) “active; positive”; (End Point: IN VIVO MICRONUCLEUS, Test System: RETICULOCYTES, Species: RAT, Strain/Sex: WISTAR/FEMALE, Route: ORAL (GAVAGE)) “active; positive”; (Test System: AMES SALMONELLA TYPHIMURIUM, Strain/Indicator: TA98, Metabolic Activation: HAMSTER, LIVER, S-9, AROCLOR 1254 (10%), Method: PREINCUBATION) “inactive; negative”; (Test System: AMES SALMONELLA TYPHIMURIUM, Strain/Indicator: TA98, Metabolic Activation: NONE, Method: PREINCUBATION) “inactive; negative”. Moreover, the mutagenic call by setting is: (Test System: AMES SALMONELLA TYPHIMURIUM, Strain/Indicator: TA98, Metabolic Activation: RAT, LIVER, S-9, AROCLOR 1254 (10%), Method: PREINCUBATION) “inactive; negative”; (Test System: AMES SALMONELLA TYPHIMURIUM, Strain/Indicator: TA100, Metabolic Activation: HAMSTER, LIVER, S-9, AROCLOR 1254 (10%), Method: PREINCUBATION) “inactive; negative”; (Test System: AMES SALMONELLA TYPHIMURIUM, Strain/Indicator: TA100, Metabolic Activation: NONE, Method: PREINCUBATION) “inactive; negative”; (Test System: AMES SALMONELLA TYPHIMURIUM, Strain/Indicator: TA100, Metabolic Activation: RAT, LIVER, S-9, AROCLOR 1254 (10%), Method: PREINCUBATION) “inactive; negative”; (Test System: AMES SALMONELLA TYPHIMURIUM, Strain/Indicator: TA102, Metabolic Activation: NONE, Method: STANDARD PLATE) “inactive; negative”; (Test System: AMES SALMONELLA TYPHIMURIUM, Strain/Indicator: TA1535, Metabolic Activation: HAMSTER, LIVER, S-9, AROCLOR 1254 (10%), Method: PREINCUBATION) “inactive; negative”. Also, the mutagenic call is “inactive; negative” (Test System: AMES SALMONELLA TYPHIMURIUM, Strain/Indicator: TA1535, Metabolic Activation: NONE, Method: PREINCUBATION); “inactive; negative” (Test System: AMES SALMONELLA TYPHIMURIUM, Strain/Indicator: TA1535, Metabolic Activation: RAT, LIVER, S-9, AROCLOR 1254 (10%), Method: PREINCUBATION); “inactive; negative” (Test System: AMES SALMONELLA TYPHIMURIUM, Strain/Indicator: TA1537, Metabolic Activation: HAMSTER, LIVER, S-9, AROCLOR 1254 (10%), Method: PREINCUBATION); “inactive; negative” (Test System: AMES SALMONELLA TYPHIMURIUM, Strain/Indicator: TA1537, Metabolic Activation: NONE, Method: PREINCUBATION); “inactive; negative” (Test System: AMES SALMONELLA TYPHIMURIUM, Strain/Indicator: TA1537, Metabolic Activation: RAT, LIVER, S-9, AROCLOR 1254 (10%), Method: PREINCUBATION); “inactive; negative” (Test System: E. COLI, Strain/Indicator: WP2 UVRA, Metabolic Activation: NONE, Method: SPOT TEST). In addition, the mutagenic call reads like this: (Test System: HUMAN BLOOD LYMPHOCYTES, Strain/Indicator: HUMAN BLOOD LYMPHOCYTES (HPRT)/6-THIOGUANINE, Metabolic Activation: NONE, Method: SUSPENSION/PLATE) “active; positive”; (Test System: MOUSE LYMPHOMA, Strain/Indicator: L5178Y (TK+/TK-), Metabolic Activation: NONE, Method: SUSPENSION/PLATE) “active; positive”.

For the molecule `C[15NH][15N]=O`, the mutagenic call (Test System: AMES SALMONELLA TYPHIMURIUM, Strain/Indicator: TA1535, Metabolic Activation: NONE, Method: STANDARD PLATE) was “active; positive”; the mutagenic call (Test System: E. COLI, Strain/Indicator: WP2, Metabolic Activation: NONE, Method: STANDARD PLATE) is “active; positive”; the mutagenic call (Test System: E. COLI, Strain/Indicator: WP2 UVRA, Metabolic Activation: NONE, Method: STANDARD PLATE) is “active; positive”.

In the case of `NOS(=O)(=O)O`, the mutagenic call reads like this: (Test System: AMES SALMONELLA TYPHIMURIUM, Strain/Indicator: G46, Metabolic Activation: RAT, LIVER, S-9, AROCLOR 1254, Method: STANDARD PLATE) “active; positive”; under setting [4], “inactive; negative”.

In the case of `COCCN(N=O)C(N)=O`, the mutagenic call (Test System: E. COLI B, Strain/Indicator: H/R30R, Metabolic Activation: NONE) is “active; positive” and the mutagenic call (Test System: E. COLI B, Strain/Indicator: HS30R, Metabolic Activation: NONE) was “active; positive”.

Values taken from PubChem BioAssay AID1259407 (Chemical Carcinogenesis Research Information System (CCRIS), 2018).
